The values below come from EP3345917A1, “ANTIPROTOZOAL COMPOUNDS” (Bacoba AG, priority 2017, dated 2018).

For series [1], the system named is Axenically grown Leishmania donovani amastigotes (strain MHOM/ET/67/L82). Nature of the series: Axenic Leishmania donovani amastigote resazurin assay. It is filed as cell-based. The conditions noted are these: In vitro inhibition, read-out: L.don. ax. An outline of the steps: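 IC50 values derive from resazurin fluorescence (ex 536 nm, em 588 nm), expressed relative to the negative control, after 2-4 hours of plate development. Axenic amastigotes of strain MHOM/ET/67/L82 were used; each test run in triplicate.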
(The colour change of resazurin is a common sign of viable cells or microbes.)

Series [2] concerns intracellular Leishmania donovani (L.don. InMac). The experiment in a line: Intracellular Leishmania donovani assay (L.don. InMac). It is filed as cell-based. The note with it: In vitro inhibition. From the text: (§1) Tests were done in triplicate.
Series [3] deals with Trypanosoma cruzi trypomastigote forms (Tulahuen strain). The experiment in a line: Intracellular Trypanosoma cruzi assay in L6-cells, beta-galactosidase/CPRG readout. The series is classed as cell-based. The note with it: In vitro inhibition, read-out: T.cruzi. An outline of the steps: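 Readout was β-galactosidase cleavage of CPRG, read photometrically at 540 nm after 2–6 h colour development, giving IC50 values. Parasites: LacZ-expressing Tulahuen C2C4 strain grown in rat L6 myoblasts; run in triplicate.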

Series [4] is described as follows: Cytotoxicity assay on L6-cells (Alamar Blue). The conditions noted are these: rat, Cytotox L6, Cytotoxicity against rat myoblast cells (L6).
Description: Tests were done in triplicate. IC50 values against the parasites as well as cytotoxic effects against rat myoblast (L6-cells) were determined by serial dilution and repeated twice.
After 68 h of incubation under humidified 5% CO2 atmosphere, 10 µl of the Alamar blue marker was added to all wells. The plates were incubated for an additional 2 h. […] The IC50S were calculated by Softmax Pro software (Molecular Devices Cooperation, Sunnyvale, CA). […] Cytotoxicity was measured against rat myoblast cells (Cytotox L6).
Series [5] concerns Trypanosoma brucei rhodesiense (STIB 900 strain). Nature of the series: Alamar Blue assay against Trypanosoma brucei rhodesiense grown in axenic medium. It is filed as cell-based. The note with it: In vitro inhibition, read-out: T.b.rhod. An outline of the steps: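 Alamar Blue-based IC50 determination, in triplicate, on axenically grown STIB 900 trypanosomes. Melarsoprol included as reference.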

Another series relates to Plasmodium falciparum. Nature of the series: 3H-hypoxanthine incorporation assay against Plasmodium falciparum. It is filed as cell-based. The conditions noted are these: In vitro inhibition, read-out: P.falc NF5. Here is the method:
as §1
IC50 values were calculated by linear interpolation.

Non-standard residues stand in square brackets, D forms with d. Residues, ends and D or L forms follow the SMILES beside them. *: point of attachment. Acetyl(1-adamantyl) = O=C(CC12CC3CC(CC(C3)C1)C2)*; Hexenoyl(2E,4S-Me) = CC[C@H](C)/C=C/C(=O)*; Benzoyl(4-CF3) = O=C(c1ccc(C(F)(F)F)cc1)*; NHCH2CH2(piperidin-1-yl) = C1CCN(CCN*)CC1; NH((S)CH(Me)CH2NMe2) = C[C@@H](CN(C)C)N*; NH(2-morpholinoethyl) = C(CN1CCOCC1)N*; Gly(octyl) = CCCCCCCC[C@H](N)C(=O)O; Oxazole4CO(2-Me) = Cc1nc(C(=O)*)co1; Benzoyl(4-F) = O=C(c1ccc(F)cc1)*; hCha = N[C@@H](CCC1CCCCC1)C(=O)O; X5 = CN(C)[C@H]1CCCC[C@@H]1N*; X17 = C[C@@H](CN1CCOCC1)N*; Hexanoyl = CCCCCC(=O)*; Aib = CC(C)(N)C(=O)O; βAla = NCCC(=O)O

For `CCCCCCCC[C@H](NC(=O)[C@@H]1CCCN1C(=O)CC12CC3CC(CC(C3)C1)C2)C(=O)N[C@@H](CC(C)C)C(=O)NC(C)(C)C(=O)N[C@@H](CC(C)C)C(=O)N[C@@H](CC(C)C)C(=O)NC(C)(C)C(=O)NC(C)(C)C(=O)NCCC(=O)N[C@@H](C)CN(C)C` [Compound 5771, (2S)-2-{[(2S)-1-[2-(adamantan-1-yl)acetyl]pyrrolidin-2-yl]formamido}-N-[(1S)-1-[(1-{[(1S)-1-{[(1S)-1-{[1-({1-[(2-{[(2S)-1-(dimethylamino)propan-2-yl]carbamoyl}ethyl)carbamoyl]-1-methylethyl}carbamoyl)-1-methylethyl]carbamoyl}-3-methylbutyl]carbamoyl}-3-methylbutyl]carbamoyl}-1-methylethyl)carbamoyl]-3-methylbutyl]decanamide] ({Acetyl(1-adamantyl)}-P[Gly(octyl)]L[Aib]LL[Aib][Aib][βAla]-{NH((S)CH(Me)CH2NMe2)}), the IC50 in series [1] came out at 0.8 nM; in series [2] it was 58.6 nM; in series [3] it was 42.1 nM; in series [5], 6.9 nM; in the series on Plasmodium falciparum, 0.8 nM. In series [4], this compound gave an IC50 at 70 h of 113 nM.

`CCCCCCCC[C@H](NC(=O)[C@@H]1CCCN1C(=O)CCCCC)C(=O)N[C@@H](CC(C)C)C(=O)NC(C)(C)C(=O)N[C@@H](CC(C)C)C(=O)N[C@@H](CC(C)C)C(=O)NC(C)(C)C(=O)NC(C)(C)C(=O)NCCC(=O)N[C@H]1CCCC[C@@H]1N(C)C` [Compound 5883, (2S)-N-[(1S)-1-[(1-{[(1S)-1-{[(1S)-1-{[1-({1-[(2-{[(1S,2S)-2-(dimethylamino)cyclohexyl]carbamoyl}ethyl)carbamoyl]-1-methylethyl}carbamoyl)-1-methylethyl]carbamoyl}-3-methylbutyl]carbamoyl}-3-methylbutyl]carbamoyl}-1-methylethyl)carbamoyl]-3-methylbutyl]-2-{[(2S)-1-hexanoylpyrrolidin-2-yl]formamido}decanamide] (Hexanoyl-P[Gly(octyl)]L[Aib]LL[Aib][Aib][βAla]-X5): the IC50 was 19800 nM in series [1]; 131 nM in series [2]; 460 nM in series [3]; 41300 nM in series [5]; 25300 nM in the series with Plasmodium falciparum. Also, in series [4], the IC50 at 70 h stood at 1480 nM.

For the compound `CCCCCCCC[C@H](NC(=O)[C@@H]1CCCN1C(=O)/C=C/[C@@H](C)CC)C(=O)N[C@@H](CC(C)C)C(=O)NC(C)(C)C(=O)N[C@@H](CC(C)C)C(=O)N[C@@H](CC(C)C)C(=O)NC(C)(C)C(=O)NC(C)(C)C(=O)NCCC(=O)N[C@@H](C)CN(C)C` [Compound 5562, (2S)-N-[(1S)-1-[(1-{[(1S)-1-{[(1S)-1-{[1-({1-[(2-{[(2S)-1-(dimethylamino)propan-2-yl]carbamoyl}ethyl)carbamoyl]-1-methylethyl}carbamoyl)-1-methylethyl]carbamoyl}-3-methylbutyl]carbamoyl}-3-methylbutyl]carbamoyl}-1-methylethyl)carbamoyl]-3-methylbutyl]-2-{[(2S)-1-[(2E,4S)-4-methylhex-2-enoyl]pyrrolidin-2-yl]formamido}decanamide] ({Hexenoyl(2E,4S-Me)}-P[Gly(octyl)]L[Aib]LL[Aib][Aib][βAla]-{NH((S)CH(Me)CH2NMe2)}), the IC50 in series [1] is 1.3 nM; in series [2], 22.3 nM; in series [3] it was 40.6 nM; in series [5], 0.5 nM; in the series on Plasmodium falciparum it was 0.3 nM. The IC50 at 70 h in series [4] worked out at 459 nM.

For `CCCCCCCC[C@H](NC(=O)[C@@H]1CCCN1C(=O)CCCCC)C(=O)N[C@@H](CC(C)C)C(=O)NC(C)(C)C(=O)N[C@@H](CC(C)C)C(=O)N[C@@H](CC(C)C)C(=O)NC(C)(C)C(=O)NC(C)(C)C(=O)NCCC(=O)NCCN1CCOCC1` [Compound 5646, (2S)-2-{[(2S)-1-hexanoylpyrrolidin-2-yl]formamido}-N-[(1S)-3-methyl-1-[(1-methyl-1-{[(1S)-3-methyl-1-{[(1S)-3-methyl-1-{[1-methyl-1-({1-methyl-1-[(2-{[2-(morpholin-4-yl)ethyl]carbamoyl}ethyl)carbamoyl]ethyl}carbamoyl)ethyl]carbamoyl}butyl]carbamoyl}butyl]carbamoyl}ethyl)carbamoyl]butyl]decanamide] (Hexanoyl-P[Gly(octyl)]L[Aib]LL[Aib][Aib][βAla]-{NH(2-morpholinoethyl)}), the IC50 in series [1] is 1.6 nM; in series [2], 99.5 nM; in series [3], 392 nM; in series [5], 212 nM; in the series on Plasmodium falciparum it was 22.4 nM. For the same compound, the IC50 at 70 h in series [4] came out at 1460 nM.

For the compound `CCCCCCCC[C@H](NC(=O)[C@@H]1CCCN1C(=O)CCCCC)C(=O)N[C@@H](CC(C)C)C(=O)NC(C)(C)C(=O)N[C@@H](CC(C)C)C(=O)N[C@@H](CC(C)C)C(=O)NC(C)(C)C(=O)NC(C)(C)C(=O)NCCC(=O)NCCN1CCCCC1` [Compound 5647, (2S)-2-{[(2S)-1-hexanoylpyrrolidin-2-yl]formamido}-N-[(1S)-3-methyl-1-[(1-methyl-1-{[(1S)-3-methyl-1-{[(1S)-3-methyl-1-{[1-methyl-1-({1-methyl-1-[(2-{[2-(piperidin-1-yl)ethyl]carbamoyl}ethyl)carbamoyl]ethyl}carbamoyl)ethyl]carbamoyl}butyl]carbamoyl}butyl]carbamoyl}ethyl)carbamoyl]butyl]decanamide] (Hexanoyl-P[Gly(octyl)]L[Aib]LL[Aib][Aib][βAla]-{NHCH2CH2(piperidin-1-yl)}), the IC50 turned out to be 3 nM in series [1]; 62.1 nM in series [2]; 13.4 nM in series [3]; 3.6 nM in series [5]; 0.6 nM with Plasmodium falciparum. Moreover, in series [4], the IC50 at 70 h worked out at 182 nM.

On to `CCCCCCCC[C@H](NC(=O)[C@@H]1CCCN1C(=O)c1coc(C)n1)C(=O)N[C@@H](CC(C)C)C(=O)NC(C)(C)C(=O)N[C@@H](CC(C)C)C(=O)N[C@@H](CC(C)C)C(=O)NC(C)(C)C(=O)NC(C)(C)C(=O)NCCC(=O)N[C@@H](C)CN(C)C` [Compound 5905, (2S)-N-[(1S)-1-[(1-{[(1S)-1-{[(1S)-1-{[1-({1-[(2-{[(2S)-1-(dimethylamino)propan-2-yl]carbamoyl}ethyl)carbamoyl]-1-methylethyl}carbamoyl)-1-methylethyl]carbamoyl}-3-methylbutyl]carbamoyl}-3-methylbutyl]carbamoyl}-1-methylethyl)carbamoyl]-3-methylbutyl]-2-{[(2S)-1-(2-methyl-1,3-oxazole-4-carbonyl)pyrrolidin-2-yl]formamido}decanamide] ({Oxazole4CO(2-Me)}-P[Gly(octyl)]L[Aib]LL[Aib][Aib][βAla]-{NH((S)CH(Me)CH2NMe2)}), for which the IC50 in series [1] came to 32000 nM; in series [2] it was 42400 nM; in series [3], 42500 nM; in series [5], 0.2 nM; with Plasmodium falciparum it was 26400 nM.

Consider `CCCCCCCC[C@H](NC(=O)[C@@H]1CCCN1C(=O)c1ccc(C(F)(F)F)cc1)C(=O)N[C@@H](CC(C)C)C(=O)NC(C)(C)C(=O)N[C@@H](CC(C)C)C(=O)N[C@@H](CC(C)C)C(=O)NC(C)(C)C(=O)NC(C)(C)C(=O)NCCC(=O)N[C@@H](C)CN(C)C` [Compound 5936, (2S)-N-[(1S)-1-[(1-{[(1S)-1-{[(1S)-1-{[1-({1-[(2-{[(2S)-1-(dimethylamino)propan-2-yl]carbamoyl}ethyl)carbamoyl]-1-methylethyl}carbamoyl)-1-methylethyl]carbamoyl}-3-methylbutyl]carbamoyl}-3-methylbutyl]carbamoyl}-1-methylethyl)carbamoyl]-3-methylbutyl]-2-{[(2S)-1-[4-(trifluoromethyl)benzoyl]pyrrolidin-2-yl]formamido}decanamide] ({Benzoyl(4-CF3)}-P[Gly(octyl)]L[Aib]LL[Aib][Aib][βAla]-{NH((S)CH(Me)CH2NMe2)}), for which the IC50 in series [1] is 11700 nM; in series [2], less than 33.2 nM; in series [3] it was 52.6 nM; in series [5] it was 0.7 nM; in the series on Plasmodium falciparum it was 31300 nM.

Regarding `CC(C)C[C@H](NC(=O)[C@H](CCC1CCCCC1)NC(=O)[C@@H]1CCCN1C(=O)c1ccc(F)cc1)C(=O)NC(C)(C)C(=O)N[C@@H](CC(C)C)C(=O)N[C@@H](CC(C)C)C(=O)NC(C)(C)C(=O)NC(C)(C)C(=O)NCCC(=O)N[C@@H](C)CN1CCOCC1` [Compound 6028, (2S)-2-[(2S)-2-{2-[(2S)-2-[(2S)-4-cyclohexyl-2-{[(2S)-1-(4-fluorobenzoyl)pyrrolidin-2-yl]formamido}butanamido]-4-methylpentanamido]-2-methylpropanamido}-4-methylpentanamido]-4-methyl-N-[1-methyl-1-({1-methyl-1-[(2-{[(2S)-1-(morpholin-4-yl)propan-2-yl]carbamoyl}ethyl)carbamoyl]ethyl}carbamoyl)ethyl]pentanamide] ({Benzoyl(4-F)}-P[hCha]L[Aib]LL[Aib][Aib][βAla]-X17), the IC50 in series [1] turned out to be 12500 nM; in series [2] it was 418 nM; in series [3] it was 230 nM; in series [5] it was 41900 nM; with Plasmodium falciparum, 26.3 nM.

As to `Cc1nc(C(=O)N2CCC[C@H]2C(=O)N[C@@H](CCC2CCCCC2)C(=O)N[C@@H](CC(C)C)C(=O)NC(C)(C)C(=O)N[C@@H](CC(C)C)C(=O)N[C@@H](CC(C)C)C(=O)NC(C)(C)C(=O)NC(C)(C)C(=O)NCCC(=O)N[C@@H](C)CN2CCOCC2)co1` [Compound 6026] ({Oxazole4CO(2-Me)}-P[hCha]L[Aib]LL[Aib][Aib][βAla]-X17), the IC50 in series [1] is 44700 nM; in series [2], 50.7 nM; in series [3] it was 422 nM; in series [5], 41400 nM; in the series with Plasmodium falciparum, 38 nM.
